ChEMBL document CHEMBL1201862, “PubChem BioAssay data set” (2004)
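Assay format: 96-well plates, 48-hour exposure. Here, GI50 denotes the concentration required for 50% inhibition of growth.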 Activity calls are given as the source filed them. Cut-off read from the data, not from the text of the source: active = GI50 up to about 1.1 µM and inactive = higher.

Assays:
Assay in all cases: NCI tumour cell line growth inhibition, 48 h
A549 = system: A549
ACHN = system: ACHN
DU-145 = system: DU-145
HCT-15 = system: HCT-15
HOP-92 = system: HOP-92
HT-29 = system: HT-29
K562 = system: K562
M14 = system: M14
MDA-N = system: MDA-N
MOLT-4 = system: MOLT-4
Malme-3M = system: Malme-3M
NCI-H23 = system: NCI-H23
OVCAR-4 = system: OVCAR-4
OVCAR-5 = system: OVCAR-5
OVCAR-8 = system: OVCAR-8
RPMI-8226 = system: RPMI-8226
SF-295 = system: SF-295
SK-MEL-28 = system: SK-MEL-28
SK-MEL-5 = system: SK-MEL-5
SW-620 = system: SW-620

| Structure (SMILES) | GI50 (A549) | GI50 (ACHN) | GI50 (DU-145) | GI50 (HCT-15) | GI50 (HOP-92) | GI50 (HT-29) | GI50 (K562) | GI50 (M14) | GI50 (MDA-N) | GI50 (MOLT-4) | GI50 (Malme-3M) | GI50 (NCI-H23) | GI50 (OVCAR-4) | GI50 (OVCAR-5) | GI50 (OVCAR-8) | GI50 (RPMI-8226) | GI50 (SF-295) | GI50 (SK-MEL-28) | GI50 (SK-MEL-5) | GI50 (SW-620) |
| --- | --- | --- | --- | --- | --- | --- | --- | --- | --- | --- | --- | --- | --- | --- | --- | --- | --- | --- | --- | --- |
| O=C1c2ccccc2C(=O)c2c(/C=C\N3CCCCC3)ccnc21 | 2.12 µM (inactive) | 5.69 µM (inactive) | 1.44 µM (inactive) | 0.582 µM | 9.18 µM (inactive) | 5.57 µM (inactive) | 0.551 µM (active) | 0.578 µM (active) | 0.383 µM (active) | 6.84 µM (inactive) | 0.661 µM (active) | 0.644 µM (active) | 9.57 µM (inactive) | 5.38 µM (inactive) | 2.15 µM (inactive) | 2.29 µM (inactive) | 2.47 µM (inactive) | 1.11 µM (active) | 0.42 µM (active) | 0.839 µM (active) |
| Cc1c(-c2ccccc2)c(C#N)c2nnn(C3CCCCC3)c(=O)n12 | 83.4 µM (inactive) | 50.5 µM (inactive) | > 100 µM (inactive) | > 100 µM | 24 µM (inactive) | 11.6 µM (inactive) | 88.3 µM (inactive) | 87.3 µM (inactive) | > 100 µM (inactive) | – | > 100 µM (inactive) | > 100 µM (inactive) | 40.6 µM (inactive) | 94.4 µM (inactive) | 44 µM (inactive) | 47.4 µM (inactive) | 29.5 µM (inactive) | > 100 µM (inactive) | 72.4 µM (inactive) | > 100 µM (inactive) |
| O=C(CNc1ccc(Cl)cc1)Nn1c(-c2ccccc2)nc2ccccc2c1=O | 14.2 µM (inactive) | 8.89 µM (inactive) | 15.1 µM (inactive) | 6.7 µM | 5.07 µM (inactive) | 6.27 µM (inactive) | 3.35 µM (inactive) | 6.18 µM (inactive) | 7.38 µM (inactive) | 2.49 µM (inactive) | 6.55 µM (inactive) | 5.43 µM (inactive) | 7.5 µM (inactive) | 14.7 µM (inactive) | 3.72 µM (inactive) | 4.47 µM (inactive) | 15.1 µM (inactive) | 6.64 µM (inactive) | 2.84 µM (inactive) | 5.12 µM (inactive) |
| O=[N+]([O-])/C(Cl)=C(/C(Cl)=C(Cl)Cl)N1CCCCC1 | 12.6 µM (inactive) | 16.1 µM (inactive) | 14 µM (inactive) | 4.36 µM | 16.1 µM (inactive) | 14.9 µM (inactive) | 7.64 µM (inactive) | 11.2 µM (inactive) | 8.34 µM (inactive) | 3.27 µM (inactive) | 2.7 µM (inactive) | 8.49 µM (inactive) | 13.8 µM (inactive) | 14.9 µM (inactive) | 4.14 µM (inactive) | 4.43 µM (inactive) | 23.7 µM (inactive) | 14.5 µM (inactive) | 6.44 µM (inactive) | – |
| N#CC(c1cc2c(cc1Br)OCO2)N1CCOCC1 (stereo not given) | > 100 µM (inactive) | 62.8 µM (inactive) | 48.5 µM (inactive) | – | > 100 µM (inactive) | 42.5 µM (inactive) | 3.32 µM (inactive) | 20.6 µM (inactive) | 18.2 µM (inactive) | 27.7 µM (inactive) | 78.9 µM (inactive) | 98.2 µM (inactive) | > 100 µM (inactive) | > 100 µM (inactive) | > 100 µM (inactive) | 20.3 µM (inactive) | 53 µM (inactive) | > 100 µM (inactive) | 26.1 µM (inactive) | 9.04 µM (inactive) |
| COC(=O)C1(C)C=CC(=O)C2(C)C1C(O)C1OC3CC(c4ccoc4)C(C)=C3C1(C)C2CC(=O)O (stereo not given) | > 100 µM (inactive) | > 100 µM (inactive) | > 100 µM (inactive) | > 100 µM | > 100 µM (inactive) | – | – | > 100 µM (inactive) | > 100 µM (inactive) | > 100 µM (inactive) | > 100 µM (inactive) | > 100 µM (inactive) | > 100 µM (inactive) | > 100 µM (inactive) | > 100 µM (inactive) | > 100 µM (inactive) | > 100 µM (inactive) | > 100 µM (inactive) | > 100 µM (inactive) | > 100 µM (inactive) |
